Experimental data reported in ChEMBL document CHEMBL5303573, “Mapping human microbiome drug metabolism by gut bacteria and their genes” (Nature, 2019).

Columns and labels:
[1] = The drug is tested on Bacteroides xylanisolvens strain: DSM18836 for biotransformation. The drug concentrations were measured before and after a 12-h incubation by liquid-chromatography-coupled mass spectrometry (LC–MS); conditions: 2 µM
[2] = The drug is tested on Bifidobacterium longum subsp. Infantis strain: CCUG52486 for biotransformation. The drug concentrations were measured before and after a 12-h incubation by liquid-chromatography-coupled mass spectrometry (LC–MS); conditions: 2 µM
[3] = The drug is tested on Eubacterium hallii strain: DSM3353 for biotransformation. The drug concentrations were measured before and after a 12-h incubation by liquid-chromatography-coupled mass spectrometry (LC–MS); conditions: anaerobutyricum hallii, 2 µM
[4] = bacteroides intestinalis, 12 h, 2 µM
Description: The drug is tested on Bacteroides intestinalis strain: DSM17393 for biotransformation. The drug concentrations were measured before and after a 12-h incubation by liquid-chromatography-coupled mass spectrometry (LC–MS)

[5] = bifidobacterium adolescentis, 12 h, 2 µM
Description: The drug is tested on Bifidobacterium adolescentis strain: ATCC 15703 for biotransformation. The drug concentrations were measured before and after a 12-h incubation by liquid-chromatography-coupled mass spectrometry (LC–MS)

[6] = The drug is tested on Ruminococcus gnavus strain: ATCC29149 for biotransformation. The drug concentrations were measured before and after a 12-h incubation by liquid-chromatography-coupled mass spectrometry (LC–MS); conditions: mediterraneibacter gnavus, 2 µM
[7] = The drug is tested on Edwardsiella tarda strain: ATCC23685 for biotransformation. The drug concentrations were measured before and after a 12-h incubation by liquid-chromatography-coupled mass spectrometry (LC–MS); conditions: 2 µM
[8] = The drug is tested on Eubacterium ventriosum strain: ATCC27560 for biotransformation. The drug concentrations were measured before and after a 12-h incubation by liquid-chromatography-coupled mass spectrometry (LC–MS); type: ADME; parameters: dose 2 uM, timepoint 0 vs 12 hours; conditions: 2 µM
[9] = The drug is tested on Bifidobacterium breve strain: DSM20213 for biotransformation. The drug concentrations were measured before and after a 12-h incubation by liquid-chromatography-coupled mass spectrometry (LC–MS); conditions: 2 µM
[10] = The drug is tested on Clostridium symbiosum strain: ATCC14940 for biotransformation. The drug concentrations were measured before and after a 12-h incubation by liquid-chromatography-coupled mass spectrometry (LC–MS); conditions: 2 µM
[11] = The drug is tested on Bacteroides sp. WH2 strain: WH2 for biotransformation. The drug concentrations were measured before and after a 12-h incubation by liquid-chromatography-coupled mass spectrometry (LC–MS); conditions: bacteroides sp. wh2, 12 h, 2 µM
[12] = The drug is tested on Providencia stuartii strain: ATCC25827 for biotransformation. The drug concentrations were measured before and after a 12-h incubation by liquid-chromatography-coupled mass spectrometry (LC–MS); conditions: 2 µM
[13] = bacteroides fragilis, 12 h, 2 µM
Description: The drug is tested on Bacteroides fragilis strain: NCTC 9343 for biotransformation. The drug concentrations were measured before and after a 12-h incubation by liquid-chromatography-coupled mass spectrometry (LC–MS)

[14] = The drug is tested on Bacteroides pectinophilus strain: ATCC43243 for biotransformation. The drug concentrations were measured before and after a 12-h incubation by liquid-chromatography-coupled mass spectrometry (LC–MS); conditions: 2 µM
[15] = The drug is tested on Collinsella intestinalis strain: DSM13280 for biotransformation. The drug concentrations were measured before and after a 12-h incubation by liquid-chromatography-coupled mass spectrometry (LC–MS); conditions: 2 µM
[16] = enterocloster bolteae, 12 h, 2 µM
Description: The drug is tested on Clostridium bolteae strain: ATCCBAA-613 for biotransformation. The drug concentrations were measured before and after a 12-h incubation by liquid-chromatography-coupled mass spectrometry (LC–MS)

[17] = bacteroides fragilis, 12 h, 2 µM; remark: listed apart in the source
Description: The drug is tested on Bacteroides fragilis strain: 3397 (T10) for biotransformation. The drug concentrations were measured before and after a 12-h incubation by liquid-chromatography-coupled mass spectrometry (LC–MS)

[18] = bacteroides thetaiotaomicron, 12 h, 2 µM
Description: The drug is tested on Bacteroides thetaiotaomicron strain: 3731 for biotransformation. The drug concentrations were measured before and after a 12-h incubation by liquid-chromatography-coupled mass spectrometry (LC–MS)

| Bacterial Biotransformation [1] | Bacterial Biotransformation [2] | Bacterial Biotransformation [3] | Bacterial Biotransformation [4] | Bacterial Biotransformation [5] | Bacterial Biotransformation [6] | Bacterial Biotransformation [7] | Bacterial Biotransformation [8] | Bacterial Biotransformation [9] | Bacterial Biotransformation [10] | Bacterial Biotransformation [11] | Bacterial Biotransformation [12] | Bacterial Biotransformation [13] | Bacterial Biotransformation [14] | Bacterial Biotransformation [15] | Bacterial Biotransformation [16] | Bacterial Biotransformation [17] | Bacterial Biotransformation [18] | SMILES |
| --- | --- | --- | --- | --- | --- | --- | --- | --- | --- | --- | --- | --- | --- | --- | --- | --- | --- | --- |
| Compound metabolized | Compound NOT metabolized | Compound NOT metabolized | Compound NOT metabolized | Compound NOT metabolized | Compound NOT metabolized | Compound NOT metabolized | Compound NOT metabolized | Compound NOT metabolized | Compound NOT metabolized | Compound metabolized | Compound NOT metabolized | Compound metabolized | – | – | – | – | – | CCCc1nc2c(C)cc(-c3nc4ccccc4n3C)cc2n1Cc1ccc(-c2ccccc2C(=O)O)cc1 |
| Compound NOT metabolized | Compound NOT metabolized | Compound NOT metabolized | Compound NOT metabolized | Compound NOT metabolized | Compound NOT metabolized | Compound NOT metabolized | Compound NOT metabolized | – | Compound NOT metabolized | Compound NOT metabolized | Compound NOT metabolized | – | Compound NOT metabolized | Compound NOT metabolized | Compound NOT metabolized | – | – | CCN(CC)CCNC(C(=O)OCCC(C)C)c1ccccc1.Cl.Cl (configuration not stated) |
| – | – | Compound NOT metabolized | Compound NOT metabolized | Compound NOT metabolized | Compound NOT metabolized | Compound NOT metabolized | Compound NOT metabolized | Compound NOT metabolized | Compound NOT metabolized | Compound NOT metabolized | – | Compound NOT metabolized | Compound NOT metabolized | Compound NOT metabolized | Compound NOT metabolized | Compound NOT metabolized | Compound metabolized | CN1CC(=O)N2[C@H](c3ccc4c(c3)OCO4)c3[nH]c4ccccc4c3C[C@@H]2C1=O |
| Compound metabolized | Compound NOT metabolized | Compound NOT metabolized | Compound NOT metabolized | Compound NOT metabolized | Compound metabolized | Compound NOT metabolized | Compound NOT metabolized | – | Compound NOT metabolized | Compound NOT metabolized | – | Compound metabolized | Compound NOT metabolized | Compound NOT metabolized | Compound NOT metabolized | Compound NOT metabolized | Compound NOT metabolized | C[C@]12CCC(=O)C=C1[C@@H]1C[C@@H]1[C@H]1[C@@H]3[C@@H]4C[C@@H]4[C@@]4(CCC(=O)O4)[C@@]3(C)CC[C@@H]12 [DROSPIRENONE] |
| – | Compound NOT metabolized | Compound NOT metabolized | Compound NOT metabolized | Compound NOT metabolized | Compound NOT metabolized | Compound NOT metabolized | Compound NOT metabolized | Compound NOT metabolized | Compound NOT metabolized | Compound NOT metabolized | – | Compound NOT metabolized | Compound NOT metabolized | Compound NOT metabolized | Compound NOT metabolized | Compound metabolized | Compound metabolized | N#Cc1ccc2c(c1)N(CCCN1CCC(O)CC1)c1ccccc1S2 [PERICIAZINE] |
| Compound NOT metabolized | – | Compound NOT metabolized | Compound NOT metabolized | Compound NOT metabolized | Compound NOT metabolized | – | – | Compound NOT metabolized | Compound metabolized | Compound metabolized | Compound NOT metabolized | Compound metabolized | Compound NOT metabolized | – | Compound NOT metabolized | – | Compound NOT metabolized | O=C1N=C([O-])NC1(c1ccccc1)c1ccccc1.[Na+] [PHENYTOIN SODIUM] |
| Compound NOT metabolized | Compound NOT metabolized | Compound NOT metabolized | Compound NOT metabolized | Compound NOT metabolized | Compound NOT metabolized | Compound NOT metabolized | Compound NOT metabolized | Compound NOT metabolized | Compound NOT metabolized | Compound NOT metabolized | Compound NOT metabolized | – | Compound NOT metabolized | Compound NOT metabolized | Compound NOT metabolized | – | Compound NOT metabolized | Nc1c2c(nc3ccccc13)CCCC2 [TACRINE] |
| Compound metabolized | Compound NOT metabolized | Compound NOT metabolized | Compound NOT metabolized | Compound NOT metabolized | – | Compound NOT metabolized | – | Compound NOT metabolized | Compound NOT metabolized | Compound NOT metabolized | Compound NOT metabolized | – | Compound NOT metabolized | – | Compound NOT metabolized | Compound metabolized | Compound NOT metabolized | Cc1cn([C@H]2C[C@H](N=[N+]=[N-])[C@@H](CO)O2)c(=O)[nH]c1=O [ZIDOVUDINE] |

| SMILES | Bacterial Biotransformation [1] | Bacterial Biotransformation [2] | Bacterial Biotransformation [3] | Bacterial Biotransformation [4] | Bacterial Biotransformation [5] | Bacterial Biotransformation [6] | Bacterial Biotransformation [7] | Bacterial Biotransformation [8] | Bacterial Biotransformation [9] | Bacterial Biotransformation [10] | Bacterial Biotransformation [11] | Bacterial Biotransformation [12] | Bacterial Biotransformation [13] | Bacterial Biotransformation [14] | Bacterial Biotransformation [15] | Bacterial Biotransformation [16] | Bacterial Biotransformation [17] | Bacterial Biotransformation [18] |
| --- | --- | --- | --- | --- | --- | --- | --- | --- | --- | --- | --- | --- | --- | --- | --- | --- | --- | --- |
| CCCCCCOC(=O)/N=C(/N)c1ccc(NCc2nc3cc(C(=O)N(CCC(=O)OCC)c4ccccn4)ccc3n2C)cc1.CS(=O)(=O)O [DABIGATRAN ETEXILATE MESYLATE] | – | Compound NOT metabolized | Compound NOT metabolized | Compound NOT metabolized | Compound NOT metabolized | Compound NOT metabolized | Compound NOT metabolized | Compound NOT metabolized | – | Compound NOT metabolized | Compound NOT metabolized | Compound NOT metabolized | Compound NOT metabolized | Compound NOT metabolized | Compound NOT metabolized | Compound NOT metabolized | Compound NOT metabolized | – |
